Assay results as given in patent US12173026B2, “PRMT5 inhibitors” (Merck Sharp & Dohme LLC, priority 2018, dated 2024).
Where a name gives a salt, the structure may show the parent alone.

System: symmetric dimethylation of arginine (SDMA) of PRMT5 substrates in MCF-7 cells
Assay: PRMT5 Cell Target Engagement (TE) Assay
Assay type: cell-based
Conditions: Homo sapiens, MCF7, 72 h; MCF-7 cells treated for 3 days; nuclear SDMA by high content imaging; top concentration 10000 nM
Summary of the method: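 MCF-7 cells treated 3 days at 37 °C with 10-point 1:3 titration from 10000 nM top. Fixed cells stained with anti-SDMA antibody plus Alexa488 secondary and Hoechst; nuclear fluorescence quantified by high-content imaging versus DMSO wells. EC50 from 4-parameter fit of percent fluorescence vs log concentration.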

Row | Compound | EC50 [nM]
1 | Cc1ncnc2c1ccn2[C@@H]1O[C@@H]2[C@H](Cc3ccc4cc(Br)c(N)nc4c3)CC[C@]2(O)[C@H]1O [Example 8, (2R,3R,3aS,6S,6aR)-6-((2-amino-3-bromoquinolin-7-yl)methyl)-2-(4-methyl-7H-pyrrolo[2,3-d]pyrimidin-7-yl)hexahydro-2H-cyclopenta[b]furan-3,3a-diol] | 0.5
2 | Cc1ncnc2c1ccn2[C@@H]1O[C@@H]2[C@H](Cc3ccc4cc(Cl)c(N)nc4c3F)CC[C@]2(O)[C@H]1O [Example 22, (2R,3R,3aS,6S,6aR)-6-[(2-amino-3-chloro-8-fluoroquinolin-7-yl)methyl]-2-(4-methyl-7H-pyrrolo[2,3-d]pyrimidin-7-yl)hexahydro-3aH-cyclopenta[b]furan-3,3a-diol] | 30
3 | CNc1ncnc2c1ccn2[C@@H]1C[C@@H]2[C@H](Cc3ccc4cc(Br)c(N)nc4c3)CC[C@]2(O)[C@H]1O [Example 97, (1S,2R,3aR,4S,6aR)-4-((2-amino-3-bromoquinolin-7-yl)methyl)-2-(4-(methylamino)-7H-pyrrolo[2,3-d]pyrimidin-7-yl)hexahydropentalene-1,6a(1H)-diol] | 1.3
4 | Cc1ncnc2c1ccn2[C@@H]1O[C@@H]2[C@@H](Oc3ccc4cc(Br)c(N)nc4c3)CC[C@]2(O)[C@H]1O [Example 7, (2R,3R,3aS,6S,6aR)-6-((2-amino-3-bromoquinolin-7-yl)oxy)-2-(4-methyl-7H-pyrrolo[2,3-d]pyrimidin-7-yl)hexahydro-2H-cyclopenta[b]furan-3,3a-diol] | 4.8
5 | C[C@]1(O)[C@@H](O)[C@H](n2ccc3c(N)ncnc32)C[C@]1(O)CCc1ccc2cc(Br)c(N)nc2c1 [Example 118, (1R,2S,3S,4R)-1-(2-(2-amino-3-bromoquinolin-7-yl)ethyl)-4-(4-amino-7H-pyrrolo[2,3-d]pyrimidin-7-yl)-2-methylcyclopentane-1,2,3-triol] | 103
6 | Nc1nc2c(F)c(C[C@@H]3CC[C@@]4(O)[C@@H]3O[C@@H](n3ccc5c(N)ncnc53)[C@@H]4O)ccc2cc1F [Example 20, (2R,3R,3aS,6S,6aR)-6-[(2-amino-3,8-difluoroquinolin-7-yl)methyl]-2-(4-amino-7H-pyrrolo[2,3-d]pyrimidin-7-yl)hexahydro-3aH-cyclopenta[b]furan-3,3a-diol] | 18.6
7 | Cc1ncnc2c1ccn2[C@@H]1O[C@@H]2[C@@H](Oc3ccc4ccc(N)nc4c3)CC[C@]2(O)[C@H]1O [Example 113, (2R,3R,3aS,6S,6aR)-6-((2-aminoquinolin-7-yl)oxy)-2-(4-methyl 7H-pyrrolo[2,3-d]pyrimidin-7-yl)hexahydro-2H-cyclopenta[b]furan-3,3a-diol] | 1.8
8 | Cc1cn([C@@H]2O[C@@H]3[C@H](Cc4ccc5cc(Cl)c(N)nc5c4)CC[C@]3(O)[C@H]2O)c2ncnc(N)c12 [Example 66, (2R,3R,3aS,6S,6aR)-6-((2-amino-3-chloroquinolin-7-yl)methyl)-2-(4-amino-5-methyl-7H-pyrrolo[2,3-d]pyrimidin-7-yl)hexahydro-3aH-cyclopenta[b]furan-3,3a-diol] | 0.9
9 | Cc1ncnc2c1ccn2[C@@H]1O[C@@H]2[C@@H](Oc3ccc4cc(Cl)c(N)nc4c3)CC[C@]2(O)[C@H]1O [Example 112, (2R,3R,3aS,6S,6aR)-6-((2-amino-3-chloroquinolin-7-v)oxy)-2-(4-methyl-7H-pyrrolo[2,3-d]pyrimidin-7-yl)hexahydro-2H-cyclopenta[b]furan-3,3a-diol] | 4
10 | Nc1nc2cc(C[C@@H]3CC[C@@]4(O)[C@@H]3C[C@@H](n3cc(F)c5c(N)ncnc53)[C@@H]4O)ccc2cc1F [Example 33, (1S,2R,3aR,4S,6aR)-4-((2-amino-3-fluoroquinolin-7-yl)methyl)-2-(4-amino-5-fluoro-7H-pyrrolo[2,3-d]pyrimidin-7-yl)hexahydropentalene-1,6a(1H)-diol] | 0.4
11 | C[C@]12O[C@@H](n3ccc4c(N)ncnc43)[C@H](O)[C@@]1(O)CC[C@H]2Cc1ccc2cc(F)c(N)nc2c1 [Example 121, (2R,3R,3aS,6S,6aR)-6-((2-amino-3-fluoroquinolin-7-yl)methyl)-2-(4-amino-7H-pyrrolo[2,3-d]pyrimidin-7-yl)-6a-methylhexahydro-3aH-cyclopenta[b]furan-3,3a-diol] | 1
12 | C[C@@]1(O)[C@@H](COc2ccc3cc(Br)c(N)nc3c2)C[C@@H](n2ccc3c(Cl)ncnc32)[C@@H]1O [Example 1] | 18
13 | C[C@]1(COc2ccc3ccc(N)nc3c2)C[C@@H](n2ccc3c(N)ncnc32)[C@H](O)[C@@H]1O [Example 101, (1S,2R,3R,5R)-5-(4-amino-7H-pyrrolo[2,3-d]pyrimidin-7-yl)-3-(((2-aminoquinolin-7-yl)oxy)methyl)-3-methylcyclopentane-1,2-diol] | 1
14 | Nc1ccc2ccc(O[C@H]3CC[C@@]4(O)[C@@H]3O[C@@H](n3ccc5c(N)ncnc53)[C@@H]4O)cc2n1 [Example 104, (2R,3R,3aS,6S,6aR)-2-(4-amino-7H-pyrrolo[2,3-d]pyrimidin-7-yl)-6-((2-aminoquinolin-7-yl)oxy)hexahydro-2H-cyclopenta[b]furan-3,3a-diol] | 7
15 | Cc1ncnc2c1ccn2[C@@H]1O[C@@H]2[C@H](Cc3ccc4cc(C(F)F)c(N)nc4c3)CC[C@]2(O)[C@H]1O [Example 23, (2R,3R,3aS,6S,6aR)-6-((2-amino-3-(difluoromethyl)quinolin-7-yl)methyl)-2-(4-methyl-7H-pyrrolo[2,3-d]pyrimidin-7-yl)hexahydro-3aH-cyclopenta[b]furan-3,3a-diol] | 1.5
16 | Cc1ncnc2c1ccn2[C@@H]1O[C@@H]2[C@@H](Oc3ccc4cc5c(nc4c3)NCC5)CC[C@]2(O)[C@H]1O [Example 89, (2R,3R,3aS,6S,6aR)-6-((2,3-dihydro-1H-pyrrolo[2,3-b]quinolin-7-yl)oxy)-2-(4-methyl-7H-pyrrolo[2,3-d]pyrimidin-7-yl)hexahydro-3aH-cyclopenta[b]furan-3,3a-diol] | 4.4
17 | Nc1nc2cc(O[C@H]3CC[C@@]4(O)[C@@H]3C[C@@H](n3ccc5c(N)ncnc53)[C@@H]4O)ccc2cc1Br [Example 119, (1S,2R,3aR,4S,6aR)-4-((2-amino-3-bromoquinolin-7-yl)oxy)-2-(4-amino-7H-pyrrolo[2,3-d]pyrimidin-7-yl)hexahydropentalene-1,6a(1H)-diol 2,2,2-trifluoroacetate] | 180
18 | C[C@]1(COc2ccc3cc(Br)c(N)nc3c2)O[C@@H](n2ccc3c(N)ncnc32)[C@H](O)[C@@H]1O [Example 13, (2R,3S,4R,5R)-2-(((2-amino-3-bromoquinolin-7-yl)oxy)methyl)-5-(4-amino-7H-pyrrolo[2,3-d]pyrimidin-7-yl)-2-methyltetrahydrofuran-3,4-diol] | 14
19 | Nc1nc2nc(C[C@@H]3CC[C@@]4(O)[C@@H]3O[C@@H](n3ccc5c(N)ncnc53)[C@@H]4O)ccc2cc1Cl [Example 28, (2R,3R,3aS,6S,6aR)-6-(7-amino-6-chloro-1,8-naphthyridin-2-yl)methyl)-2-(4-amino-7H-pyrrolo[2,3-d]pyrimidin-7-yl)hexahydro-3aH-cyclopenta[b]furan-3,3a-diol trihydrochloride] | 13
20 | Cc1nc(N)c2ccn([C@@H]3O[C@@H]4[C@H](Cc5ccc6cc(Br)c(N)nc6c5)CC[C@]4(O)[C@H]3O)c2n1 [Example 61, (2R,3R,3aS,6S,6aR)-2-(4-amino-2-methyl-7H-pyrrolo[2,3-d]pyrimidin-7-yl)-6-((2-amino-3 bromoquinolin-7-yl)methyl)hexahydro-3aH-cyclopenta[b]furan-3,3a-diol] | 3.2
21 | Nc1nc2cc(O[C@H]3CC[C@@]4(O)[C@@H]3O[C@@H](n3ccc5c(N)ncnc53)[C@@H]4O)ccc2cc1Cl [Example 72, (2R,3R,3aS,6S,6aR)-6-((2-amino-3-chioroquinolin-7-yl)oxy)-2-(4-amino-7H-pyrrolo[2,3-d]pyrimidin-7-yl)hexahydro-3aH-cyclopenta[b]furan-3,3a-diol] | 1.2
22 | C[C@]1(CCc2ccc3cc(Br)c(N)nc3c2)C[C@@H](n2ccc3c(N)ncnc32)[C@H](O)[C@@H]1O [Example 15, (1S,2R,3S,5R)-3-[2-(2-amino-3-bromo-7-quinolinyl)ethyl]-5-(4-amino-7H-pyrrolo[2,3-d]pyrimidin-7-yl)-3-methyl-1,2-cyclopentanediol] | 0.5
23 | Cc1nc(C)c2ccn([C@@H]3O[C@@H]4[C@H](Cc5ccc6cc(Cl)c(N)nc6c5)CC[C@]4(O)[C@H]3O)c2n1 [Example 91, (2R,3R,3aS,6S,6aR)-6-((2-amino-3-chloroquinolin-7-yl)methyl)-2-(2,4-dimethyl-7H-pyrrolo[2,3-d]pyrimidin-7-yl)hexahydro-3aH-cyclopenta[b]furan-3,3a-diol] | 6.3
24 | Cc1nc(N)c2ccn([C@@H]3O[C@@H]4[C@@H](Oc5ccc6cc(Br)c(N)nc6c5)CC[C@]4(O)[C@H]3O)c2n1 [Example 63, (2R,3R,3aS,6S,6aR)-2-(4-amino-2-methyl-7H-pyrrolo[2,3-d]pynmidin-7-yl)-6-((2-amino-3-bromoquinolin-7-yl)oxy)hexahydro-3aH-cyclopenta[b]furan-3,3a-diol] | 5.6
25 | Nc1nc2cc(C[C@@H]3CC[C@@]4(O)[C@@H]3O[C@@H](n3cc(C(F)F)c5c(N)ncnc53)[C@@H]4O)ccc2cc1F [Example 51, (2R,3R,3aS,6S,6aR)-2-[4-amino-5-(difluoromethyl)-7H-pyrrolo[2,3-d]pyrimidin-7-yl]-6-[(2-amino-3-fluoroquinolin-7-yl)methyl]hexahydro-3aH-cyclopenta[b]furan-3,3a-diol] | 2.8
26 | CNc1ncnc2c1ccn2[C@@H]1C[C@H](COc2ccc3cc(Br)c(N)nc3c2)[C@@](C)(O)[C@H]1O [Example 93, (1R,2S,3R,5R)-5-(((2-amino-3-bromoquinolin-7-yl)oxy)methyl)-1-methyl-3-(4-(methylamino)-7H-pyrrolo[2,3-d]pyrimidin-7-yl)cyclopentane-1,2-diol] | 3.5
